From paper PMC9481151, “Discovery of new symmetrical and asymmetrical nitrile-containing 1,4-dihydropyridine derivatives as dual kinases and P-glycoprotein inhibitors: synthesis, in vitro assays, and in silico studies” (Journal of Enzyme Inhibition and Medicinal Chemistry, 2022)
≈ marks a conversion by molar mass, not a printed value. Where “and” joins values, the source holds several entries; their conditions need not be identical. Equal values may be shown once. Read-outs that look alike come from different tables or passages of the source.

What was measured:
NCI-H226 = test: NCI single dose (10 µM) SRB screen; format: cell-based, human; conditions: non-small cell lung cancer, 48 h
SW-620 = test: NCI single dose (10 µM) SRB screen; format: cell-based, human; conditions: colon cancer, 48 h
LOX IMVI = test: NCI single dose (10 µM) SRB screen; format: cell-based, human; conditions: melanoma, 48 h
SK-MEL-5 = test: NCI single dose (10 µM) SRB screen; format: cell-based, human; conditions: melanoma, 48 h
OVCAR-3 = test: NCI single dose (10 µM) SRB screen; format: cell-based, human; conditions: ovarian cancer, 48 h
OVCAR-4 = test: NCI single dose (10 µM) SRB screen; format: cell-based, human; conditions: ovarian cancer, 48 h
OVCAR-8 = test: NCI single dose (10 µM) SRB screen; format: cell-based, human; conditions: ovarian cancer, 48 h
RXF 393 = test: NCI single dose (10 µM) SRB screen; format: cell-based, human; conditions: renal cancer, 48 h
MCF7 = test: NCI single dose (10 µM) SRB screen; format: cell-based, human; conditions: breast cancer, 48 h
HS578T = test: NCI single dose (10 µM) SRB screen; format: cell-based, human; conditions: breast cancer, 48 h
BT-549 = test: NCI single dose (10 µM) SRB screen; format: cell-based, human; conditions: breast cancer, 48 h
NCI 60 cancer cell lines = test: NCI single dose (10 µM) SRB screen, mean over panel; format: cell-based, human; conditions: mean over 60 cell lines, 48 h
Candida albicans = test: Agar well diffusion method; conditions: for zone of inhibition at 1000 µg/mL: Candida albicans, 24 h, read-out: Diameter of inhibition zone, C. albicans; for % activity index, C. albicans: relative to clotrimazole
Aspergillus flavus = test: Agar well diffusion method; conditions: for zone of inhibition at 1000 µg/mL: Aspergillus flavus, 24 h, read-out: Diameter of inhibition zone, A. flavus; for % activity index, A. flavus: relative to clotrimazole
S. aureus = test: MIC, two-fold microbroth dilution method; conditions: Staphylococcus aureus
B. subtilis = test: MIC, two-fold microbroth dilution method; conditions: Bacillus subtilis
E. coli = test: MIC, two-fold microbroth dilution method; conditions: Escherichia coli, read-out: MIC (µg/mL) E. coli
P. aeruginosa = test: MIC, two-fold microbroth dilution method; conditions: Pseudomonas aeruginosa, read-out: MIC (µg/mL) P. aeruginosa
C. albicans = test: MIC, two-fold microbroth dilution method; conditions: Candida albicans
A. flavus = test: MIC, two-fold microbroth dilution method; conditions: Aspergillus flavus, read-out: MIC (µg/mL) A. flavus
[1] = read-out: MIC (µg/mL) S. aureus
[2] = 24 h, read-out: MIC, B. subtilis
[3] = read-out: MIC (µg/mL) B. subtilis
[4] = read-out: MIC (µg/mL) C. albicans

| Structure (SMILES) | melting point [°C] | GI% NCI-H226 (NCI-H226) | GI% SW-620 (SW-620) | GI% LOX IMVI (LOX IMVI) | GI% SK-MEL-5 (SK-MEL-5) | GI% OVCAR-3 (OVCAR-3) | GI% OVCAR-4 (OVCAR-4) | GI% OVCAR-8 (OVCAR-8) | GI% RXF 393 (RXF 393) | GI% MCF7 (MCF7) | GI% HS578T (HS578T) | GI% BT-549 (BT-549) | Mean GI% (NCI 60 cancer cell lines) [%] | zone of inhibition at 1000 µg/mL (Candida albicans) [mm] | % activity index, C. albicans (Candida albicans) | zone of inhibition at 1000 µg/mL (Aspergillus flavus) [mm] | % activity index, A. flavus (Aspergillus flavus) [%] | other results |
| --- | --- | --- | --- | --- | --- | --- | --- | --- | --- | --- | --- | --- | --- | --- | --- | --- | --- | --- |
| COC(=O)C1=C(C)NC(C)=C(C(=O)OC)C1c1cccc(C#N)c1 [Compound 1a, Dimethyl 4-(3-cyanophenyl)-2,6-dimethyl-1,4-dihydropyridine-3,5-dicarboxylate] | 200 to 202 | – (Only GI% ≥ 10 are shown) | – (Only GI% ≥ 10 are shown) | – (Only GI% ≥ 10 are shown) | – (Only GI% ≥ 10 are shown) | – (Only GI% ≥ 10 are shown) | – (Only GI% ≥ 10 are shown) | – (Only GI% ≥ 10 are shown) | – (Only GI% ≥ 10 are shown) | – (Only GI% ≥ 10 are shown) | – (Only GI% ≥ 10 are shown) | – (Only GI% ≥ 10 are shown) | −4 | 13 | 48.1% | 15 | 60 |  |
| CCOC(=O)C1=C(C)NC(C)=C(C(=O)OCC)C1c1cccc(C#N)c1 [Compound 1b, Diethyl 4-(3-cyanophenyl)-2,6-dimethyl-1,4-dihydropyridine-3,5-dicarboxylate] | 144 to 146 | – (Only GI% ≥ 10 are shown) | – (Only GI% ≥ 10 are shown) | – (Only GI% ≥ 10 are shown) | – (Only GI% ≥ 10 are shown) | – (Only GI% ≥ 10 are shown) | – (Only GI% ≥ 10 are shown) | – (Only GI% ≥ 10 are shown) | 10% | 15% | 16% | – (Only GI% ≥ 10 are shown) | 8 | 15 | 55.5% | 16 | 64 |  |
| CC1=C(C(=O)OC(C)C)C(c2cccc(C#N)c2)C(C(=O)OC(C)C)=C(C)N1 [Compound 1c, Diisopropyl 4-(3-cyanophenyl)-2,6-dimethyl-1,4-dihydropyridine-3,5-dicarboxylate] | 124 to 125 | – (Only GI% ≥ 10 are shown) | – (Only GI% ≥ 10 are shown) | – (Only GI% ≥ 10 are shown) | – (Only GI% ≥ 10 are shown) | – (Only GI% ≥ 10 are shown) | – (Only GI% ≥ 10 are shown) | – (Only GI% ≥ 10 are shown) | – (Only GI% ≥ 10 are shown) | 11% | – (Only GI% ≥ 10 are shown) | – (Only GI% ≥ 10 are shown) | 6 | 10 | 37% | 13 | 52 |  |

Second part, led by results:

| melting point [°C] | Structure (SMILES) | GI% NCI-H226 (NCI-H226) | GI% SW-620 (SW-620) | GI% LOX IMVI (LOX IMVI) | GI% SK-MEL-5 (SK-MEL-5) | GI% OVCAR-3 (OVCAR-3) | GI% OVCAR-4 (OVCAR-4) | GI% OVCAR-8 (OVCAR-8) | GI% RXF 393 (RXF 393) | GI% MCF7 (MCF7) | GI% HS578T (HS578T) | GI% BT-549 (BT-549) | Mean GI% (NCI 60 cancer cell lines) [%] | zone of inhibition at 1000 µg/mL (Candida albicans) [mm] | % activity index, C. albicans (Candida albicans) | zone of inhibition at 1000 µg/mL (Aspergillus flavus) [mm] | % activity index, A. flavus (Aspergillus flavus) [%] | other results |
| --- | --- | --- | --- | --- | --- | --- | --- | --- | --- | --- | --- | --- | --- | --- | --- | --- | --- | --- |
| 128 to 130 | COC(=O)C1=C(C)NC(C)=C(C(=O)OC(C)C)C1c1cccc(C#N)c1 (racemic) [Compound 2a, (±)-3-Isopropyl 5-methyl 4-(3-cyanophenyl)-2,6-dimethyl-1,4-dihydropyridine-3,5-dicarboxylate] | – (Only GI% ≥ 10 are shown) | – (Only GI% ≥ 10 are shown) | – (Only GI% ≥ 10 are shown) | – (Only GI% ≥ 10 are shown) | – (Only GI% ≥ 10 are shown) | – (Only GI% ≥ 10 are shown) | – (Only GI% ≥ 10 are shown) | – (Only GI% ≥ 10 are shown) | – (Only GI% ≥ 10 are shown) | – (Only GI% ≥ 10 are shown) | – (Only GI% ≥ 10 are shown) | 0 | 21 | 77% and 77.8% | 22 | 88 | MIC (S. aureus; 24 h, read-out: MIC, S. aureus): 1 µg/mL (≈ 2.82 µM); MIC (S. aureus; [1]): 1 µg/mL (≈ 2.82 µM); MIC (B. subtilis; [2]): 2 µg/mL (≈ 5.64 µM); MIC (B. subtilis; [3]): 2 µg/mL (≈ 5.64 µM); MIC (E. coli): 2 µg/mL (≈ 5.64 µM); MIC (P. aeruginosa): 4 µg/mL (≈ 11.3 µM); MIC (C. albicans; [4]): 4 µg/mL (≈ 11.3 µM); MIC (A. flavus): 8 µg/mL (≈ 22.6 µM) |
| 133 to 135 | COC(=O)C1=C(C)NC(C)=C(C(=O)OCC(C)C)C1c1cccc(C#N)c1 (racemic) [Compound 2b, (±)-3-Isobutyl 5-methyl 4-(3-cyanophenyl)-2,6-dimethyl-1,4-dihydropyridine-3,5-dicarboxylate] | 10% | – (Only GI% ≥ 10 are shown) | – (Only GI% ≥ 10 are shown) | – (Only GI% ≥ 10 are shown) | – (Only GI% ≥ 10 are shown) | – (Only GI% ≥ 10 are shown) | – (Only GI% ≥ 10 are shown) | – (Only GI% ≥ 10 are shown) | 15% | 14% | – (Only GI% ≥ 10 are shown) | 5 | 7 | 25.9% | 11 | 44 |  |
| 127 to 128 | COCCOC(=O)C1=C(C)NC(C)=C(C(=O)OC)C1c1cccc(C#N)c1 (racemic) [Compound 2d, (±)-3-(2-Methoxyethyl) 5-methyl 4-(3-cyanophenyl)-2,6-dimethyl-1,4-dihydropyridine-3,5-dicarboxylate] | – (Only GI% ≥ 10 are shown) | – (Only GI% ≥ 10 are shown) | – (Only GI% ≥ 10 are shown) | – (Only GI% ≥ 10 are shown) | – (Only GI% ≥ 10 are shown) | – (Only GI% ≥ 10 are shown) | – (Only GI% ≥ 10 are shown) | – (Only GI% ≥ 10 are shown) | – (Only GI% ≥ 10 are shown) | – (Only GI% ≥ 10 are shown) | – (Only GI% ≥ 10 are shown) | −2 | 12 | 44.4% | 15 | 60 |  |
| 151 to 153 | CCOC(=O)C1=C(C)NC(C)=C(C(=O)OC)C1c1cccc(C#N)c1 (racemic) [Compound 2g, (±)-3-Ethyl 5-methyl 4-(3-cyanophenyl)-2,6-dimethyl-1,4-dihydropyridine-3,5-dicarboxylate] | – (Only GI% ≥ 10 are shown) | – (Only GI% ≥ 10 are shown) | – (Only GI% ≥ 10 are shown) | – (Only GI% ≥ 10 are shown) | – (Only GI% ≥ 10 are shown) | – (Only GI% ≥ 10 are shown) | – (Only GI% ≥ 10 are shown) | – (Only GI% ≥ 10 are shown) | 11% | 10% | – (Only GI% ≥ 10 are shown) | −1 | 23 | 85% and 85.2% | 24 | 96 | MIC (S. aureus; 24 h, read-out: MIC, S. aureus): 0.5 µg/mL (≈ 1.47 µM); MIC (S. aureus; [1]): 0.5 µg/mL (≈ 1.47 µM); MIC (B. subtilis; [2]): 1 µg/mL (≈ 2.94 µM); MIC (B. subtilis; [3]): 1 µg/mL (≈ 2.94 µM); MIC (E. coli): 1 µg/mL (≈ 2.94 µM); MIC (P. aeruginosa): 2 µg/mL (≈ 5.88 µM); MIC (C. albicans; 24 h, read-out: MIC, C. albicans): 1 µg/mL (≈ 2.94 µM); MIC (C. albicans; [4]): 1 µg/mL (≈ 2.94 µM); MIC (A. flavus): 2 µg/mL (≈ 5.88 µM) |
| 136 to 138 | CCOC(=O)C1=C(C)NC(C)=C(C(=O)OC(C)C)C1c1cccc(C#N)c1 (racemic) [Compound 2h, (±)-3-Ethyl 5-isopropyl 4-(3-cyanophenyl)-2,6-dimethyl-1,4-dihydropyridine-3,5-dicarboxylate] | – (Only GI% ≥ 10 are shown) | – (Only GI% ≥ 10 are shown) | – (Only GI% ≥ 10 are shown) | – (Only GI% ≥ 10 are shown) | – (Only GI% ≥ 10 are shown) | – (Only GI% ≥ 10 are shown) | – (Only GI% ≥ 10 are shown) | – (Only GI% ≥ 10 are shown) | – (Only GI% ≥ 10 are shown) | – (Only GI% ≥ 10 are shown) | – (Only GI% ≥ 10 are shown) | 0 | 8 | 29.6% | 12 | 48 |  |
